“And” between values parts separate entries of the source, which are not always exact repeats. Equal entries are not always repeated. Inconclusive results and toxic doses are left out. Rule for the calls: active = survival T/C of 150% or more; inactive = T/C below 125% in these data.
System: P388 leukemia ip, CD2F1 mice, survival T/C
Assay: NCI In Vivo Anticancer Drug Screen. Data for tumor model P388 Leukemia (intraperitoneal) in CD2F1 (CDF1) mice
Conditions: endpoint: median survival time, higher = longer survival
In short: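 Mice carrying the transplanted tumor received test compound or vehicle. Survival was recorded in each group, and the value is the treated-group measurement divided by that of the vehicle-treated control group.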

[1] = dose: 100.0 mg/kg/injection, schedule: Q04DX003 (ip), vehicle: saline
[2] = dose: 200.0 mg/kg/injection, schedule: Q04DX003 (ip), vehicle: saline
[3] = dose: 400.0 mg/kg/injection, schedule: Q04DX003 (ip), vehicle: saline
[4] = dose: 50.0 mg/kg/injection, schedule: Q01DX009 (ip), vehicle: Klucel (hydroxypropylcellulose) (HPC)
[5] = dose: 100.0 mg/kg/injection, schedule: Q01DX009 (ip), vehicle: Klucel (hydroxypropylcellulose) (HPC)
[6] = dose: 200.0 mg/kg/injection, schedule: Q01DX009 (ip), vehicle: Klucel (hydroxypropylcellulose) (HPC)
[7] = dose: 60.0 mg/kg/injection, schedule: Q01DX005 (ip), vehicle: saline with Tween-80
[8] = dose: 120.0 mg/kg/injection, schedule: Q01DX005 (ip), vehicle: saline with Tween-80
[9] = dose: 240.0 mg/kg/injection, schedule: Q01DX005 (ip), vehicle: saline with Tween-80
[10] = dose: 50.0 mg/kg/injection, schedule: Q01DX005 (ip), vehicle: saline with Tween-80
[11] = dose: 100.0 mg/kg/injection, schedule: Q01DX005 (ip), vehicle: saline with Tween-80
[12] = dose: 200.0 mg/kg/injection, schedule: Q01DX005 (ip), vehicle: saline with Tween-80
[13] = dose: 50.0 mg/kg/injection, schedule: Q01DX009 (ip), vehicle: saline
[14] = dose: 25.0 mg/kg/injection, schedule: Q01DX005 (ip), vehicle: saline with Tween-80
[15] = dose: 25.0 mg/kg/injection, schedule: Q01DX009 (ip), vehicle: saline
[16] = dose: 100.0 mg/kg/injection, schedule: Q01DX009 (ip), vehicle: saline
[17] = dose: 60.0 mg/kg/injection, schedule: Q01DX005 (ip), vehicle: Klucel (hydroxypropylcellulose) (HPC)
[18] = dose: 120.0 mg/kg/injection, schedule: Q01DX005 (ip), vehicle: Klucel (hydroxypropylcellulose) (HPC)
[19] = dose: 240.0 mg/kg/injection, schedule: Q01DX005 (ip), vehicle: Klucel (hydroxypropylcellulose) (HPC)
[20] = dose: 25.0 mg/kg/injection, schedule: Q01DX005 (ip), vehicle: Klucel (hydroxypropylcellulose) (HPC)
[21] = dose: 50.0 mg/kg/injection, schedule: Q01DX005 (ip), vehicle: Klucel (hydroxypropylcellulose) (HPC)
[22] = dose: 100.0 mg/kg/injection, schedule: Q01DX005 (ip), vehicle: Klucel (hydroxypropylcellulose) (HPC)
[23] = dose: 200.0 mg/kg/injection, schedule: Q01DX005 (ip), vehicle: Klucel (hydroxypropylcellulose) (HPC)

Measured: T/C

CCN(CC)C(=O)/C(C)=C1/c2ccccc2S(=O)(=O)N1C
inactive: dose: 100.0 mg/kg/injection, schedule: Q04DX003 (ip), vehicle: Klucel (hydroxypropylcellulose) (HPC) 109 % of control | dose: 200.0 mg/kg/injection, schedule: Q04DX003 (ip), vehicle: Klucel (hydroxypropylcellulose) (HPC) 94 % of control | dose: 400.0 mg/kg/injection, schedule: Q04DX003 (ip), vehicle: Klucel (hydroxypropylcellulose) (HPC) 98 % of control

O=C(CCS(=O)(=O)CCC(=O)c1cccs1)c1cccs1
inactive: [1] 90 % of control | [2] 90 % of control | [3] 90 % of control

COC(=O)c1ccc(SCCC2(COS(C)(=O)=O)OCCO2)cc1
inactive: [4] 106 % of control | [5] 102 % of control | [6] 96 % of control

Cn1c(=O)c2[nH]c(C(C)(C)O)nc2n(C)c1=O
inactive: [7] 101 % of control | [8] 104 % of control | [9] 101 % of control

CC(C)(C)NC(=S)N/N=C/c1ccccc1O
inactive: [10] 108 % of control | [11] 109 % of control | [12] 107 % of control

CC1CCC2(C)OC1OC2CN (stereo unspecified)
inactive: [10] 100 % of control | [11] 99 % of control | [12] 100 % of control

COc1ccc(/C=C/C(=O)C(C)(C)Br)cc1
inactive: [7] 101 % of control | [8] 101 % of control | [9] 103 % of control

CN(C)C1=C(Cl)C(=O)c2ccccc2C1=O
inactive: dose: 25.0 mg/kg/injection, schedule: Q01DX009 (ip), vehicle: Klucel (hydroxypropylcellulose) (HPC) 100 % of control | [4] 100 % of control | [5] 97 % of control

O=C1CCCN1
inactive: [1] 100 % of control | [2] 100 % of control | [3] 109 % of control

O=C(CCS(=O)(=O)CCC(=O)c1ccco1)c1ccco1
inactive: [1] 94 % of control | [2] 94 % of control | [3] 90 % of control

CNC(=S)N\N=C/C(/C=C/c1ccccc1)=N\NC(=S)NC
inactive: dose: 100.0 mg/kg/injection, schedule: Q01DX001 (ip), vehicle: Klucel (hydroxypropylcellulose) (HPC) 90 % of control | dose: 200.0 mg/kg/injection, schedule: Q01DX001 (ip), vehicle: Klucel (hydroxypropylcellulose) (HPC) 100 % of control

C=CCN(C#N)CC=C
inactive: [13] 96 % of control

COC(CCCNCCCC(OC)OC)OC
inactive: dose: 50.0 mg/kg/injection, schedule: Q01DX005 (ip), vehicle: saline 102 % of control | dose: 100.0 mg/kg/injection, schedule: Q01DX005 (ip), vehicle: saline 103 % of control | dose: 200.0 mg/kg/injection, schedule: Q01DX005 (ip), vehicle: saline 103 % of control

Cc1c([N+](=O)[O-])cc(Br)c2ccccc12
inactive: dose: 25.0 mg/kg/injection, schedule: Q01DX009 (ip), vehicle: water 108 % of control | dose: 50.0 mg/kg/injection, schedule: Q01DX009 (ip), vehicle: water 94 % of control | dose: 100.0 mg/kg/injection, schedule: Q01DX009 (ip), vehicle: water 93 % of control

CS1=C2C(=O)CC(C)(C)CC2=Nc2ccccc21 (stereo unspecified)
inactive: dose: 12.5 mg/kg/injection, schedule: Q01DX005 (ip), vehicle: saline with Tween-80 104 % of control | [14] 104 % of control | [10] 99 % of control and 100 % of control

Cc1c(C)c(C)c2c(c1C)CCC2O (stereo unspecified)
inactive: dose: 12.5 mg/kg/injection, schedule: Q01DX009 (ip), vehicle: saline with Tween-80 102 % of control and 100 % of control | dose: 25.0 mg/kg/injection, schedule: Q01DX009 (ip), vehicle: saline with Tween-80 105 % of control and 102 % of control | dose: 50.0 mg/kg/injection, schedule: Q01DX009 (ip), vehicle: saline with Tween-80 105 % of control and 100 % of control

COC(=O)C(=O)c1c(-c2ccc(O)c(OC)c2)[nH]c2[nH]n(-c3ccccc3)c(=O)c2c1=O
inactive: [7] 100 % of control | [8] 109 % of control | [9] 88 % of control

N=C(N)SCCCN
inactive: [15] 95 % of control | [13] 103 % of control | [16] 112 % of control | dose: 200.0 mg/kg/injection, schedule: Q01DX009 (ip), vehicle: saline 112 % of control

C=CC1(C)CCC2C(=CCC3C(C)(COC4OC(CO)C(O)C(O)C4O)C(O)CCC23C)C1 (stereo unspecified)
inactive: dose: 3.0 mg/kg/injection, schedule: Q01DX009 (ip), vehicle: Klucel (hydroxypropylcellulose) (HPC) 100 % of control | dose: 6.0 mg/kg/injection, schedule: Q01DX009 (ip), vehicle: Klucel (hydroxypropylcellulose) (HPC) 94 % of control | dose: 12.0 mg/kg/injection, schedule: Q01DX009 (ip), vehicle: Klucel (hydroxypropylcellulose) (HPC) 103 % of control | dose: 24.0 mg/kg/injection, schedule: Q01DX009 (ip), vehicle: Klucel (hydroxypropylcellulose) (HPC) 103 % of control | dose: 48.0 mg/kg/injection, schedule: Q01DX009 (ip), vehicle: Klucel (hydroxypropylcellulose) (HPC) 106 % of control

CC1CC(C)CN(S(=O)(=O)c2cc(Cl)c(Oc3ccc([N+](=O)[O-])cc3Cl)c(Cl)c2)C1 (stereo unspecified)
inactive: [17] 101 % of control | [18] 100 % of control | [19] 110 % of control

O=c1[nH]c2c([N+](=O)[O-])cc(Cl)cc2nc1/C=C(\O)c1ccccn1
inactive: [17] 101 % of control | [18] 99 % of control | [19] 98 % of control

CCOC(=O)NN(C(=O)OCC)C(C(C)=O)c1ccccc1 (stereo unspecified)
inactive: [17] 105 % of control | [18] 103 % of control | [19] 103 % of control

CN/N=C\c1cc2ccccc2c2ccccc12
inactive: [10] 96 % of control | [11] 91 % of control | [12] 88 % of control

Nc1nc(SCC(=O)O)[nH]c(=O)c1N
inactive: [10] 91 % of control | [11] 104 % of control | [12] 104 % of control

Cc1cc(N=Cc2cccs2)cc(Cl)c1O
inactive: [1] 101 % of control | [2] 99 % of control | [3] 98 % of control

N#CCCN1CCC(N)=NC1=NC#N
inactive: [20] 100 % of control | [21] 112 % of control | [22] 94 % of control | [23] 96 % of control

Cc1cccn2ccnc12
inactive: [15] 100 % of control and 93 % of control | [13] 100 % of control and 96 % of control | [16] 120 % of control and 94 % of control

Cc1cc2cc(C)nc(C)c2c(C)n1
inactive: [21] 94 % of control | [22] 89 % of control | [23] 92 % of control

COc1cc(C2c3cc4c(cc3OC(=O)C2C(C)=O)OCO4)cc(OC)c1OC (stereo unspecified)
inactive: dose: 30.0 mg/kg/injection, schedule: Q01DX005 (ip), vehicle: saline with Tween-80 89 % of control and 90 % of control | [7] 89 % of control (2×) and 93 % of control | [8] 107 % of control and 110 % of control

COc1ccc(C(c2cc(C(C)(C)C)c(O)c(C(C)(C)C)c2)N2CCCCC2)cc1 (stereo unspecified)
inactive: [10] 102 % of control | [11] 109 % of control | [12] 112 % of control

CCCCCCN=Cc1c(O)c(O)c(C(C)C)c2cc(C)c(-c3c(C)cc4c(C(C)C)c(O)c(O)c(C=NCCCCCC)c4c3O)c(O)c12
inactive: dose: 12.0 mg/kg/injection, schedule: Q01DX005 (ip), vehicle: saline with Tween-80 100 % of control | [14] 92 % of control | [10] 96 % of control

NS(=O)(=O)c1ccc(NC(=O)Nc2c(Cl)cccc2Cl)cc1
inactive: [4] 96 % of control | [5] 87 % of control | [6] 95 % of control

C=Cc1ccccc1 (tested in a mixture with another compound)
inactive: dose: 12.5 mg/kg/injection, schedule: Q01DX005 (ip), vehicle: saline 98 % of control | dose: 25.0 mg/kg/injection, schedule: Q01DX005 (ip), vehicle: saline 99 % of control

CN(C)/C=C/C=C1\CCCC1=O
inactive: dose: 50.0 mg/kg/injection, schedule: Q04DX002 (ip), vehicle: saline with Tween-80 103 % of control | dose: 100.0 mg/kg/injection, schedule: Q04DX002 (ip), vehicle: saline with Tween-80 100 % of control | dose: 200.0 mg/kg/injection, schedule: Q04DX002 (ip), vehicle: saline with Tween-80 108 % of control

O=C1CCCCCC2=NC12 (stereo unspecified)
inactive: dose: 6.25 mg/kg/injection, schedule: Q01DX005 (ip), vehicle: Klucel (hydroxypropylcellulose) (HPC) 105 % of control and 90 % of control | dose: 12.5 mg/kg/injection, schedule: Q01DX005 (ip), vehicle: Klucel (hydroxypropylcellulose) (HPC) 103 % of control and 109 % of control | [20] 113 % of control and 118 % of control | [21] 116 % of control

From PubChem BioAssay AID330 (DTP/NCI, 2004)
